The values that follow come from patent US20250154686A1, “COMPOUND LIBRARY” (CHUGAI SEIYAKU KABUSHIKI KAISHA, priority 2021, published 2025).

Molecules are shown by their SMILES.

The assay concerns the target T1, Bcl-2 protein (Recombinant Human Bcl-2 Protein) (Homo sapiens, UniProt P10415).
T1 construct: purchased Novus Biologicals NBP2-34889
The experiment in a line: AS-MS evaluation of binding of the Example 4 mixture library (1200 compounds/well) to Bcl-2, ASMS ratio (%). Conditions: AS-MS, Example 4 mixture library; for ASMS ratio (%) n = 1: Bcl-2, replicate n = 1; for ASMS ratio (%) n = 2: Bcl-2, replicate n = 2. The essentials:
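A pooled 1200-compound mixture (20 nM each final) was incubated with 20 μM recombinant human Bcl-2 in pH 7.4 Tris-HCl buffer with NaCl, Tween-20 and DTT for 1 h at 23° C. in the dark. Bound ligands were separated by spin-column SEC and measured by reverse-phase LC/MS; ASMS ratio (%) was calculated against protein-free unfiltered standard and protein-free SEC blank.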

T1 sequence (P10415 whole entry): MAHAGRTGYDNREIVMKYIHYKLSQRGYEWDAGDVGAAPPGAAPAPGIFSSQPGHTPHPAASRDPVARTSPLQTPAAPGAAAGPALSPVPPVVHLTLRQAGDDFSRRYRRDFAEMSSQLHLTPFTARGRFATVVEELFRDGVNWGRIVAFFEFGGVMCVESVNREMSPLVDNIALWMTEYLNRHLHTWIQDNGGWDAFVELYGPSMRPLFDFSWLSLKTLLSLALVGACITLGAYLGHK

Regarding `CCOc1cccc(-c2cc(CN3CCN(c4ccc(C(=O)NS(=O)(=O)CCC(F)(F)F)cc4)CC3)cc(OC(F)(F)F)c2)c1` [Compound B2N063-01, 4-[4-[[3-(3-Ethoxyphenyl)-5-(trifluoromethoxy)phenyl]methyl]piperazin-1-yl]-N-(3,3,3-trifluoropropylsulfonyl)benzamide], the “ASMS ratio (%) n = 1” value is listed as −0.3% and the “ASMS ratio (%) n = 2” value is −3.8%.
In the same order, the values of `CCOc1cncc(-c2cc(CN3CCN(c4ccc(C(=O)NS(=O)(=O)CCC(F)(F)F)cc4)CC3)cc(OC(F)(F)F)c2)c1` [Compound B2N064-01, 4-[4-[[3-(5-Ethoxypyridin-3-yl)-5-(trifluoromethoxy)phenyl]methyl]piperazin-1-yl]-N-(3,3,3-trifluoropropylsulfonyl)benzamide] are 0.0% and 0.0%.
On the same counts, the results for `CCOc1cccc(-c2ccc(CN3CCN(c4ccc(C(=O)NS(=O)(=O)CCC(F)(F)F)cc4)CC3)c3ccccc23)c1` [Compound B2N065-01, 4-[4-[[4-(3-Ethoxyphenyl)naphthalen-1-yl]methyl]piperazin-1-yl]-N-(3,3,3-trifluoropropylsulfonyl)benzamide] are 0.0% and 0.0%.
For `CCOc1cncc(-c2ccc(CN3CCN(c4ccc(C(=O)NS(=O)(=O)CCC(F)(F)F)cc4)CC3)c3ccccc23)c1` [Compound B2N066-01, 4-[4-[[4-(5-Ethoxypyridin-3-yl)naphthalen-1-yl]methyl]piperazin-1-yl]-N-(3,3,3-trifluoropropylsulfonyl)benzamide], the “ASMS ratio (%) n = 1” value was 0.0% and the “ASMS ratio (%) n = 2” value turned out to be 0.0%.
For the compound `CCOc1cccc(-c2csc(CN3CCN(c4ccc(C(=O)NS(=O)(=O)CCC(F)(F)F)cc4)CC3)c2)c1` [Compound B2N067-01, 4-[4-[[4-(3-Ethoxyphenyl)thiophen-2-yl]methyl]piperazin-1-yl]-N-(3,3,3-trifluoropropylsulfonyl)benzamide], the “ASMS ratio (%) n = 1” value was 0.0% and the “ASMS ratio (%) n = 2” value was 0.0%.
On to `CCOc1cncc(-c2csc(CN3CCN(c4ccc(C(=O)NS(=O)(=O)CCC(F)(F)F)cc4)CC3)c2)c1` [Compound B2N068-01, 4-[4-[[4-(5-Ethoxypyridin-3-yl)thiophen-2-yl]methyl]piperazin-1-yl]-N-(3,3,3-trifluoropropylsulfonyl)benzamide], for which the “ASMS ratio (%) n = 1” value is listed as 0.0% and the “ASMS ratio (%) n = 2” value worked out at 0.5%.
On the same counts, the results for `CCOc1cccc(C#Cc2ccccc2CN2CCN(c3ccc(C(=O)NS(=O)(=O)CCC(F)(F)F)cc3)CC2)c1` [Compound B2N069-01, 4-[4-[[2-[2-(3-Ethoxyphenyl)ethynyl]phenyl]methyl]piperazin-1-yl]-N-(3,3,3-trifluoropropylsulfonyl)benzamide] are −1.8% and −1.5%.
On the same counts, the results for `CCOc1cncc(C#Cc2ccccc2CN2CCN(c3ccc(C(=O)NS(=O)(=O)CCC(F)(F)F)cc3)CC2)c1` [Compound B2N070-01, 4-[4-[[2-[2-(5-Ethoxypyridin-3-yl)ethynyl]phenyl]methyl]piperazin-1-yl]-N-(3,3,3-trifluoropropylsulfonyl)benzamide] are 0.0% and 0.0%.
On the same counts, the results for `CCOc1cccc(-c2ccccc2CN2CCN(c3ccc(C(=O)NS(=O)(=O)CCC(F)(F)F)nn3)CC2)c1` [Compound B2N071-01, 6-[4-[[2-(3-Ethoxyphenyl)phenyl]methyl]piperazin-1-yl]-N-(3,3,3-trifluoropropylsulfonyl)pyridazine-3-carboxamide] are 0.0% and 0.0%.
For the compound `CCOc1cncc(-c2ccccc2CN2CCN(c3ccc(C(=O)NS(=O)(=O)CCC(F)(F)F)nn3)CC2)c1` [Compound B2N072-01, 6-[4-[[2-(5-Ethoxypyridin-3-yl)phenyl]methyl]piperazin-1-yl]-N-(3,3,3-trifluoropropylsulfonyl)pyridazine-3-carboxamide], the “ASMS ratio (%) n = 1” value stood at 0.0% and the “ASMS ratio (%) n = 2” value is 0.1%.
In the same order, the values of `CCOc1cccc(-c2ccc(CN3CCN(c4ccc(C(=O)NS(=O)(=O)CCC(F)(F)F)nn4)CC3)cc2C)c1` [Compound B2N073-01, 6-[4-[[4-(3-Ethoxyphenyl)-3-methylphenyl]methyl]piperazin-1-yl]-N-(3,3,3-trifluoropropylsulfonyl)pyridazine-3-carboxamide] are 0.0% and 0.0%.
In the same order, the values of `CCOc1cncc(-c2ccc(CN3CCN(c4ccc(C(=O)NS(=O)(=O)CCC(F)(F)F)nn4)CC3)cc2C)c1` [Compound B2N074-01, 6-[4-[[4-(5-Ethoxypyridin-3-yl)-3-methylphenyl]methyl]piperazin-1-yl]-N-(3,3,3-trifluoropropylsulfonyl)pyridazine-3-carboxamide] are 0.0% and 0.0%.
On the same counts, the results for `CCOc1cncc(-c2ccc(CN3CCN(c4ccc(C(=O)NS(=O)(=O)CCC(F)(F)F)nn4)CC3)c(CC)c2)c1` [Compound B2N076-01, 6-[4-[[4-(5-Ethoxypyridin-3-yl)-2-ethylphenyl]methyl]piperazin-1-yl]-N-(3,3,3-trifluoropropylsulfonyl)pyridazine-3-carboxamide] are 0.0% and 0.0%.
Turning to `CCOc1cccc(-c2ccc(CN3CCN(c4ccc(C(=O)NS(=O)(=O)CCC(F)(F)F)nn4)CC3)cc2F)c1` [Compound B2N077-01, 6-[4-[[4-(3-Ethoxyphenyl)-3-fluorophenyl]methyl]piperazin-1-yl]-N-(3,3,3-trifluoropropylsulfonyl)pyridazine-3-carboxamide], the “ASMS ratio (%) n = 1” value was found to be 0.0% and the “ASMS ratio (%) n = 2” value was 0.0%.
For the compound `CCOc1cncc(-c2ccc(CN3CCN(c4ccc(C(=O)NS(=O)(=O)CCC(F)(F)F)nn4)CC3)cc2F)c1` [Compound B2N078-01, 6-[4-[[4-(5-Ethoxypyridin-3-yl)-3-fluorophenyl]methyl]piperazin-1-yl]-N-(3,3,3-trifluoropropylsulfonyl)pyridazine-3-carboxamide], the “ASMS ratio (%) n = 1” value is on record as 0.0% and the “ASMS ratio (%) n = 2” value is listed as 0.0%.
On to `CCOc1cccc(-c2ccc(CN3CCN(c4ccc(C(=O)NS(=O)(=O)CCC(F)(F)F)nn4)CC3)c(OC)c2)c1` [Compound B2N079-01, 6-[4-[[4-(3-Ethoxyphenyl)-2-methoxyphenyl]methyl]piperazin-1-yl]-N-(3,3,3-trifluoropropylsulfonyl)pyridazine-3-carboxamide], for which the “ASMS ratio (%) n = 1” value is recorded as 0.0% and the “ASMS ratio (%) n = 2” value was found to be 0.0%.
Take `CCOc1cncc(-c2ccc(CN3CCN(c4ccc(C(=O)NS(=O)(=O)CCC(F)(F)F)nn4)CC3)c(OC)c2)c1` [Compound B2N080-01, 6-[4-[[4-(5-Ethoxypyridin-3-yl)-2-methoxyphenyl]methyl]piperazin-1-yl]-N-(3,3,3-trifluoropropylsulfonyl)pyridazine-3-carboxamide]: the “ASMS ratio (%) n = 1” value is 0.0% and the “ASMS ratio (%) n = 2” value stood at 0.0%.
Turning to `CCOc1cccc(-c2cc(CN3CCN(c4ccc(C(=O)NS(=O)(=O)CCC(F)(F)F)nn4)CC3)cc(OCC)c2)c1` [Compound B2N081-01], the “ASMS ratio (%) n = 1” value was 0.0% and the “ASMS ratio (%) n = 2” value is 0.0%.
Consider `CCOc1cncc(-c2cc(CN3CCN(c4ccc(C(=O)NS(=O)(=O)CCC(F)(F)F)nn4)CC3)cc(OCC)c2)c1` [Compound B2N082-01, 6-[4-[[3-Ethoxy-5-(5-ethoxypyridin-3-yl)phenyl]methyl]piperazin-1-yl]-N-(3,3,3-trifluoropropylsulfonyl)pyridazine-3-carboxamide], for which the “ASMS ratio (%) n = 1” value is 2.5% and the “ASMS ratio (%) n = 2” value was determined as 2.8%.
On the same counts, the results for `CCOc1cccc(-c2cc(CN3CCN(c4ccc(C(=O)NS(=O)(=O)CCC(F)(F)F)nn4)CC3)cc(OC(C)C)c2)c1` [Compound B2N083-01, 6-[4-[[3-(3-Ethoxyphenyl)-5-propan-2-yloxyphenyl]methyl]piperazin-1-yl]-N-(3,3,3-trifluoropropylsulfonyl)pyridazine-3-carboxamide] are 0.0% and 0.0%.
On the same counts, the results for `CCOc1cncc(-c2cc(CN3CCN(c4ccc(C(=O)NS(=O)(=O)CCC(F)(F)F)nn4)CC3)cc(OC(C)C)c2)c1` [Compound B2N084-01] are 0.0% and 0.0%.
On the same counts, the results for `CCOc1cccc(-c2cc(OC)c(CN3CCN(c4ccc(C(=O)NS(=O)(=O)CCC(F)(F)F)nn4)CC3)c(OC)c2)c1` [Compound B2N085-01, 6-[4-[[4-(3-Ethoxyphenyl)-2,6-dimethoxyphenyl]methyl]piperazin-1-yl]-N-(3,3,3-trifluoropropylsulfonyl)pyridazine-3-carboxamide] are 0.0% and 0.0%.
`CCOc1cncc(-c2cc(OC)c(CN3CCN(c4ccc(C(=O)NS(=O)(=O)CCC(F)(F)F)nn4)CC3)c(OC)c2)c1` [Compound B2N086-01, 6-[4-[[4-(5-Ethoxypyridin-3-yl)-2,6-dimethoxyphenyl]methyl]piperazin-1-yl]-N-(3,3,3-trifluoropropylsulfonyl)pyridazine-3-carboxamide]: the “ASMS ratio (%) n = 1” value is recorded as 0.0% and the “ASMS ratio (%) n = 2” value is 0.0%.
For `CCOc1cccc(-c2cc(CN3CCN(c4ccc(C(=O)NS(=O)(=O)CCC(F)(F)F)nn4)CC3)cc(C(F)(F)F)c2)c1` [Compound B2N087-01, 6-[4-[[3-(3-Ethoxyphenyl)-5-(trifluoromethyl)phenyl]methyl]piperazin-1-yl]-N-(3,3,3-trifluoropropylsulfonyl)pyridazine-3-carboxamide], the “ASMS ratio (%) n = 1” value stood at 0.0% and the “ASMS ratio (%) n = 2” value was 0.0%.
